Measurements taken from the supplement of paper PMC10307832.

Tests used:
Assay in all cases: relative viability (nuclei count vs DMSO), 5 days (fraction); higher = more cells survive
[1] = compound: C1/C(=C\C2=CC=CS2)/C(=O)/C(=C/C3=CC=CS3)/C1 + C[C@@H](Oc1cc(-c2cnn(C3CCNCC3)c2)cnc1N)c1c(Cl)ccc(F)c1Cl [Crizotinib] (partner 1 µM)
How it was run: (§1)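 Relative viability was taken as the ratio of nuclei in treated wells to nuclei in vehicle wells. Lung cancer cell lines in 1536-well plates received compounds by pin tool one day after seeding, either one drug alone or a fixed anchor-drug dose plus five library-drug doses (not always all listed) in √10 steps. Nuclei were counted on 4× images after 5 days of treatment, and values are medians of duplicate plates.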

[2] = compound: C1/C(=C\C2=CC=CS2)/C(=O)/C(=C/C3=CC=CS3)/C1 + C[C@]1(O)C[C@@H](c2nc(-c3ccc4ccc(-c5ccccc5)nc4c3)c3c(N)nccn32)C1 [Linsitinib] (partner 1 µM)
How it was run: as §1

[3] = compound: C1/C(=C\C2=CC=CS2)/C(=O)/C(=C/C3=CC=CS3)/C1 + Nc1ncn([C@H]2C[C@H](O)[C@@H](CO)O2)c(=O)n1 [Decitabine] (partner 2 µM)
How it was run: as §1

[4] = compound: C[C@]12O[C@H](C[C@]1(O)CO)n1c3ccccc3c3c4c(c5c6ccccc6n2c5c31)CNC4=O [Lestaurtinib] + CC(C)C[C@H](NC(=O)[C@H](Cc1ccccc1)NC(=O)c1cnccn1)B(O)O [Bortezomib] (partner 0.002 µM)
How it was run: as §1

Cell Line | relative viability ([1]; first compound 0.2 µM) | relative viability ([1]; first compound 0.6325 µM) | relative viability ([1]; first compound 2 µM) | relative viability ([1]; first compound 6.325 µM) | relative viability ([1]; first compound 20 µM) | relative viability ([2]; first compound 0.2 µM) | relative viability ([2]; first compound 0.6325 µM) | relative viability ([2]; first compound 2 µM) | relative viability ([2]; first compound 6.325 µM) | relative viability ([2]; first compound 20 µM) | relative viability ([3]; first compound 0.2 µM) | relative viability ([3]; first compound 0.6325 µM) | relative viability ([3]; first compound 2 µM) | relative viability ([3]; first compound 6.325 µM) | relative viability ([3]; first compound 20 µM) | relative viability ([4]; first compound 0.01581 µM) | relative viability ([4]; first compound 0.05 µM) | relative viability ([4]; first compound 0.1581 µM) | relative viability ([4]; first compound 0.5 µM) | relative viability ([4]; first compound 0.005 µM)
LCLC-97TM1 | 0.328 | 0.433 | 0.453 | 0.252 | 0.462 | 0.183 | 0.169 | 0.187 | 0.158 | 0.197 | 0.25 | 0.241 | 0.219 | 0.173 | 0.19 | 0.723 | 0.299 | 0.282 | 0.226 | 
LCLC-103H | 1.09 | 1.03 | 1.08 | 0.906 | 1.03 | 1.12 | 1.16 | 1.15 | 0.975 | 0.995 | 0.803 | 0.747 | 0.77 | 0.554 | 0.742 | 1.07 | 0.943 | 0.908 | 0.56 | 1.09
LOU-NH91 | 0.739 | 0.572 | 0.743 | 0.679 | 0.714 | 1 | 0.898 | 1.03 | 0.806 | 1.02 | 0.85 | 0.777 | 0.781 | 0.797 | 0.825 | 0.549 | 0.53 | 0.511 | 0.373 | 0.486
LU99A | 0.539 | 0.665 | 0.625 | 0.466 | 0.562 | 0.535 | 0.497 | 0.574 | 0.353 | 0.61 | 0.878 | 0.969 | 0.982 | 0.629 | 0.866 | 1.02 | 0.516 | 0.382 | 0.208 | 1.02
LXF-289 | 0.811 | 0.835 | 0.767 | 0.709 | 0.821 | 0.981 | 1.03 | 0.922 | 0.912 | 0.984 | 0.371 | 0.386 | 0.355 | 0.373 | 0.344 | 1.08 | 0.75 | 0.762 | 0.185 | 0.975
NCI-H23 | 0.411 | 0.627 | 0.661 | 0.527 | 0.511 | 0.584 | 0.51 | 0.67 | 0.437 | 0.643 | 0.32 | 0.293 | 0.314 | 0.34 | 0.285 | 1.04 | 0.642 | 1.1 | 0.255 | 0.904
NCI-H322M | 0.876 | 1.03 | 0.98 | 0.743 | 0.922 | 0.995 | 0.909 | 1.11 | 0.81 | 0.845 | 0.654 | 0.63 | 0.743 | 0.654 | 0.678 | 1.34 | 1.13 | 0.588 | 0.967 | 1.25
NCI-H441 | 0.967 | 0.786 | 1.06 | 0.729 | 0.604 | 0.627 | 0.692 | 0.664 | 0.547 | 0.583 | 0.265 | 0.267 | 0.247 | 0.234 | 0.414 | 0.618 | 0.603 | 0.295 | 0.367 | 0.4
NCI-H460 | 0.813 | 1.17 | 0.958 |  | 0.835 | 0.838 | 0.976 | 0.694 |  | 0.728 | 0.454 | 0.548 | 0.481 | 0.473 | 0.449 | 1.35 | 0.926 | 1.44 | 0.84 | 1.08
NCI-H520 | 0.882 | 0.966 | 0.715 | 0.655 | 0.751 | 0.953 | 1.09 | 0.941 | 1.02 | 0.795 | 0.597 | 0.518 | 0.548 |  | 0.492 | 0.724 | 0.282 | 0.321 | 0.224 | 0.712
NCI-H596 | 1.09 | 0.975 | 1.04 | 0.981 | 0.949 | 1.15 | 1.04 | 1.02 | 1.01 | 1.04 | 1.04 | 1.13 | 0.992 | 1.05 | 1.02 | 1.28 | 0.969 | 1.29 | 1.06 | 1.16
NCI-H647 | 1.2 | 1.1 | 1.12 | 0.992 | 1 | 1.27 | 1.36 | 1.03 | 0.969 | 1.17 | 0.43 | 0.424 | 0.32 | 0.441 | 0.357 | 0.828 | 0.276 | 0.244 | 0.133 | 0.994
NCI-H650 | 0.658 | 0.921 | 0.632 | 0.893 | 0.768 | 0.96 | 0.86 | 0.896 | 0.903 | 0.803 | 0.311 | 0.293 | 0.293 | 0.307 | 0.306 | 1.03 | 0.678 | 0.452 | 0.314 | 0.651
